Key:
[1] = cited from earlier work
[2] = in the combination of dasatinib and crizotinib, administered once daily, children
[3] = Pharmacokinetic studies of crizotinib and dasatinib in patients; assay type: in vivo, human
BCRP = conditions: cited from earlier work
[4] = tested on: ERK (p-ERK/total ERK) in peripheral-blood mononuclear cells; test: Total and phosphorylated ERK in PBMC before and 3 hours after dasatinib; assay type: in vivo, human; conditions: after dosing of dasatinib, paired samples
p-glycoprotein = conditions: cited from earlier work

| SMILES | CNS penetration [1] | maximum tolerated dose (MTD) [2] | AUC0→t ([3]; dose 215 mg/m^2, day 1, 8 patients, t=∞, median (range)) | AUC0→t ([3]; dose 215 mg/m^2, day 14, 4 patients, t=24 hours, median (range)) | Tmax ([3]; human, in vivo) | Cmax ([3]; human, in vivo, 165 mg/m2) | Cmax ([3]; human, in vivo, 165 mg/m2, Cmax) | half-life ([3]; human, in vivo, elimination half-life, crizotinib day 1 of therapy, 25 patients, median, range 9.8 to 34.7) | half-life ([3]; human, in vivo, elimination half-life, crizotinib day 14 of therapy, 19 patients, median, range 8.0 to 36.5) | substrate of BCRP (BCRP) | change in ratio of p-ERK/total ERK in PBMC [4] | substrate of p-glycoprotein (p-glycoprotein) | half-life ([3]; human, in vivo) | AUC0→t ([3]; human, in vivo, 50 mg/m2) | Cmax ([3]; human, in vivo, 50 mg/m2) | AUC0→t ([3]; human, in vivo, 65 mg/m2) | Cmax ([3]; human, in vivo, 65 mg/m2) | apparent oral clearance ([3]; human, in vivo, po) |
| --- | --- | --- | --- | --- | --- | --- | --- | --- | --- | --- | --- | --- | --- | --- | --- | --- | --- | --- |
| C[C@@H](Oc1cc(-c2cnn(C3CCNCC3)c2)cnc1N)c1c(Cl)ccc(F)c1Cl [Crizotinib] | minimal and probably inadequate for the treatment of primary CNS cancers | 215 mg/m^2 | 5,326.3 (2,068.3 to 12,182.9) ng/mL/hr | 3,118.9 (1,693.8 to 4,278.5) ng/mL/hr | 4.1 h | 155.5 (55.8 to 324.4) ng/mL | 156 ng/mL | 13.1 h | 12.8 h | – | – | – | – | – | – | – | – | – |
| Cc1nc(Nc2ncc(C(=O)Nc3c(C)cccc3Cl)s2)cc(N2CCN(CCO)CC2)n1 [Dasatinib] | more limited than initially recognized | 50 mg/m^2 | – | – | 2.1 h | – | – | – | – | substrate of p-glycoprotein and BCRP | No statistically significant changes | substrate of p-glycoprotein | 4.4 h | 593.8 (388.1 to 1,521.1) ng/mL/hr | 120 ng/mL | 863.9 (721.9 to 1,006) ng/mL/hr | 210 ng/mL | 1,328 mL/min/m^2 |

From article PMC5980705 (Pediatric blood & cancer, 2018)
